Test system: retina (BCCAO-induced retinopathy)
Test: Number of cells in retinal nuclear layers and GCL after BCCAO, eye drops
Assay type: in vivo, rat (male)
Settings: eye drops 1 μg/drop, twice a day, five days, vs BCCAO-induced degenerated retinas, 14 days
Protocol: Adult male rat litters were housed in the animal facility in individual cages in a 12 h light-dark cycle with food and water ad libitum. Animal housing, care and application of experimental procedures were in accordance with institutional guidelines under approved protocols (No: BA02/2000–26/2017, University of Pecs). Under isoflurane anesthesia, common carotid arteries were exposed on both sides through a midline incision and then ligated with a 3–0 filament. A group of animals (sham group) underwent all steps of the operating procedure except ligation of the carotid arteries. Immediately following the operation, the right eye of the animals was treated with derivatives of PACAP (PACAP-TAT /n = 17/ or VIP-TAT /n = 17/) eye drops (1 μg/drop). Dose and schedule of the eye drop treatments were based on our previous experiments (Werling et al. [2016]). In the experiment for histological analysis, the different derivatives were dissolved in benzalkonium solution for ophthalmic use (solutio ophthalmica cum benzalkonio (SOCB)). The left eye, serving as a control, was treated with vehicle containing neither PACAP-TAT nor VIP-TAT. Animals were treated for five consecutive days, twice a day with one drop of drug, under brief isoflurane anesthesia (max. 5 min).
Fourteen days after the operation, rats (n = 10 SHAM and n = 24 BCCAO) were killed with anesthetic and the eyes were processed for histology. The eyes were removed and the retinas were solved in phosphate buffered saline (PBS), fixed in 4% paraformaldehyde dissolved in 0.1 M phosphate buffer (PB) (Sigma, Budapest, Hungary) and embedded in Durcupan ACM resin (Sigma, Budapest, Hungary). Retinas were cut at 2 μm and stained with toluidine blue dye (Sigma, Hungary). Sections were mounted in DPX medium (Sigma, Hungary) and photographs were taken with a digital CCD camera using the Spot program. Central retinal areas within 1 mm from the optic nerve were used (n = 5 measurements from one tissue block). The following parameters were measured: (i) cross-section of the retina from the outer limiting membrane (OLM) to the inner limiting membrane (ILM), (ii) the width of individual retinal layers (outer nuclear layer [ONL], outer plexiform layer [OPL], inner nuclear layer [INL], inner plexiform layer [IPL]), (iii) the number of cells/100 μm section length in the GCL, and the (iv) number of cells/[…]. Results are presented as mean ± SEM. Statistical comparisons were made using the two-way ANOVA test followed by Tukey’s post hoc analysis.
(§1) Fig. 5 Quantification of the number of cells/100 μm GCL length (a), the number of cells/500 μm^2 ONL (b) and INL (c) areas in SHAM+SOCB, in SHAM+PACAP-TAT, in BCCAO+SOCB, and in BCCAO+PACAP-TAT animals. Statistical significance (*p < 0.05 vs. SHAM+SOCB retinas, #p < 0.05 vs. BCCAO+SOCB retinas) was calculated by two-way ANOVA followed by Bonferroni’s post hoc test
as §1, with “Fig. 7” for “Fig. 5”, “in SHAM+VIP-TAT,” for “in SHAM+PACAP-TAT,”, “in BCCAO+VIP-TAT” for “in BCCAO+PACAP-TAT”

`CC[C@H](C)[C@H](NC(=O)[C@H](CO)NC(=O)[C@H](CC(N)=O)NC(=O)[C@H](CC(C)C)NC(=O)[C@H](Cc1ccc(O)cc1)NC(=O)[C@H](CCCCN)NC(=O)[C@H](CCCCN)NC(=O)[C@@H](NC(=O)[C@H](C)NC(=O)[C@H](CCSC)NC(=O)[C@H](CCC(N)=O)NC(=O)[C@H](CCCCN)NC(=O)[C@H](CCCNC(=N)N)NC(=O)[C@H](CC(C)C)NC(=O)[C@H](CCCNC(=N)N)NC(=O)[C@@H](NC(=O)[C@H](Cc1ccc(O)cc1)NC(=O)[C@H](CC(N)=O)NC(=O)[C@H](CC(=O)O)NC(=O)[C@@H](NC(=O)[C@H](Cc1ccccc1)NC(=O)[C@@H](NC(=O)[C@H](C)NC(=O)[C@H](CC(=O)O)NC(=O)[C@H](CO)NC(=O)[C@@H](N)Cc1c[nH]cn1)C(C)C)[C@@H](C)O)[C@@H](C)O)C(C)C)C(=O)N[C@@H](CC(C)C)C(=O)N[C@@H](CC(N)=O)C(=O)NCC(=O)N[C@@H](CCCNC(=N)N)C(=O)N[C@@H](CCCCN)C(=O)N[C@@H](CCCCN)C(=O)N[C@@H](CCCNC(=N)N)C(=O)N[C@@H](CCCNC(=N)N)C(=O)N[C@@H](CCC(N)=O)C(=O)N[C@@H](CCCNC(=N)N)C(=O)N[C@@H](CCCNC(=N)N)C(=O)N[C@@H](CCCNC(=N)N)C(=O)N1CCC[C@H]1C(=O)N[C@@H](CCC(N)=O)C(=O)O` [VIP-TAT] was tested, and the “Number of cells in the GCL/100 μm after BCCAO” value was “reduced cell loss in almost all nuclear layers, except in the ONL/500 μm2” and the “Number of cells in the INL/500 μm2 after BCCAO” value was “reduced cell loss in almost all nuclear layers, except in the ONL/500 μm2”.
